Tested on: 3,6-L-AHG transferase
Assay: Quantitative analysis of 3,6-L-AHG with the final active fraction and NADP^+ (absorbance at 339 nm)
Assay type: biochemical, Saccharophagus degradans
Details: 50 minute reaction, relative concentrations 1, 0.5, 0.25, 0.1 and 0.05 (1 = 20 mg/mL), FIG. 1
Experimental: 7.5 μl of the final active fraction obtained in Preparation Example 2, 0.1 mM of NADP^+, and 50 mM of Tris-HCl (pH 8.0) are mixed to prepare 100 μl of a composition for quantitative analysis of 3,6-L-AHG.
An amount of 3,6-L-AHG is added to various 100 μl samples of the composition for quantitative analysis of 3,6-L-AHG obtained in Preparation Example 4 to achieve dilution factors for the 3,6-L-AHG of 1, 0.5, 0.25, 0.1 and 0.05 in terms of relative concentrations. A relative 3,6-L-AHG concentration of 1 corresponds to 20 mg/mL. Reaction is carried out for 50 minutes, and then absorbance is measured at 339 nm using a microplate spectrophotometer (Bio-Tek Instruments, Inc.) according to the End-point UV method.

How did the “amount of NADPH produced versus amount of 3,6-L-AHG in the sample” value turn out when `O=C[C@@H](O)[C@@H]1OC[C@H](O)[C@H]1O` [3,6-L-AHG, 3,6-anhydro-L-galactose] was run?
Its value is “linearly related”.

Reference: US8486654B2, “Compositions and methods for measuring 3,6-L-AHG transferase activity and 3,6-L-AHG” (Samsung Electronics Co., Ltd., priority 2010, dated 2013)
